# In patent US8992982B2, “Formulation of indomethacin” (Iceutica Pty Ltd., priority 2009, dated 2015):
# How the values were obtained:
# Assay type in all cases: in vivo, human
# [1] = tested on: pain after surgical removal of impacted third molars; assay: Phase 2 dental pain study: 2-stopwatch method (time to onset of analgesia, first perceptible and meaningful pain relief); conditions: ITT
# Experimental: (§1) Subjects assessed their baseline pain intensity (VAS) before receiving study drug (predose, Time 0) and their pain intensity (VAS) and pain relief (5-point categorical scale) at 15, 30, and 45 minutes and 1, 1.5, 2, 3, 4, 5, 6, 7, and 8 hours after Time 0 and immediately before the first dose of rescue medication. The 2-stopwatch method was used to record the time to perceptible and time to meaningful pain relief, respectively. Acetaminophen (1000 mg) was permitted as the initial rescue medication. Subjects were encouraged to wait at least 60 minutes after receiving study drug before taking rescue medication. […] Other restrictions included the following: no alcohol use from 24 hours before surgery until discharge on Day 1; nothing by mouth (NPO) from midnight before surgery until 1 hour after surgery; clear liquids only from 1 hour after surgery until 1 hour after dosing; and advancement of diet 1 hour after dosing according to standard practice.
# (§2) The secondary efficacy endpoints were as follows: • TOTPAR over 0 to 4 hours (TOTPAR-4) after Time 0 • Visual Analogue Scale (VAS) pain intensity difference (VASPID) at each scheduled time point after Time 0 • Time to onset of analgesia (measured as time to perceptible pain relief confirmed by meaningful pain relief) • VAS pain intensity score at each scheduled time point • VAS summed pain intensity difference (VASSPID) over 0 to 4 hours (VASSPID-4) and over 0 to 8 hours (VASSPID-8) after Time 0 • Pain relief score at each scheduled time point after Time 0 • Peak pain relief • Time to peak pain relief • Time to first perceptible pain relief • Time to meaningful pain relief • Proportion of subjects using rescue medication • Time to first use of rescue medication (duration of analgesia) • Patient's global evaluation of study drug Safety:
# (§3) For each time-to-event endpoint, the Kaplan-Meier method was used to evaluate the treatment effect. Time to onset of analgesia (measured as time to perceptible pain relief confirmed by meaningful pain relief) was based on data collected using the 2-stopwatch method. […] A summary table provided the number of subjects analyzed, the number of subjects censored, estimates for the quartiles, and 95% confidence intervals (CIs) for the estimated median. P values from log-rank tests were also used to examine treatment effect. Cox proportional hazard models were used to explore potential covariates such as sex, baseline pain intensity, and surgical trauma rating, if appropriate.
# [2] = tested on: pain after surgical removal of impacted third molars; assay: Phase 2 dental pain study: use of rescue medication (proportion of subjects, time to first use); conditions: 400 mg
# Experimental: as §1, §2, §3
# For the proportion of subjects using rescue medication, a logistic regression model that adjusted for baseline pain intensity was used to evaluate the treatment effect. Subgroup analysis by sex was performed if sex was confirmed to be a statistically significant covariate for TOTPAR-8. Baseline values were defined as the last measurements taken before dosing with a study drug.
# [3] = Phase 2 dental pain study: safety (TEAEs, vital signs); conditions: Safety population
# Experimental: Efficacy was assessed during the 8 hours after Time 0. Safety was assessed by the incidence of treatment-emergent AEs (TEAEs) and changes in vital sign measurements.
# The safety endpoints were the incidence of TEAEs and changes in vital sign measurements.
# Protocol-specified safety data were provided in by-subject listings. The Medical Dictionary for Regulatory Activities (MedDRA) (version 11.0) was used to classify all AEs with respect to system organ class and preferred term. Adverse event summaries included only TEAEs, which were summarized by incidence, severity, and relationship to study drug for each treatment group. The Cochran-Mantel-Haenszel test was used to compare the rates of occurrence between the placebo and Indomethacin Nanoformulation Capsule groups for all TEAEs. A list of AEs leading to study discontinuation, along with the summaries described above, was also provided.
# Vital sign measurements were summarized using descriptive statistics (mean, standard deviation [SD], median, minimum, and maximum) at each scheduled time point for each treatment group. Changes from Baseline for vital signs were calculated for each subject and summarized for each treatment group at each scheduled time point after Baseline. No formal statistical tests were performed.
smiles,measurement,setting,value
Cc1ccc(-c2cc(C(F)(F)F)nn2-c2ccc(S(N)(=O)=O)cc2)cc1 [Celecoxib],"Hazard ratio vs placebo, Cox proportional hazards model (time to first perceptible pain relief)",[1]; 400 mg,1.7
same,"Hazard ratio vs placebo, Cox proportional hazards model (time to meaningful pain relief)",[1]; 400 mg,3.2
same,"Time to first perceptible pain relief: subjects analyzed, %",[1]; 400 mg,(92.2) %
same,"Time to first perceptible pain relief: subjects censored, %",[1]; 400 mg,(7.8) %
same,"Time to meaningful pain relief: subjects analyzed, %",[1]; 400 mg,(68.6) %
same,"Time to meaningful pain relief: subjects analyzed, n",[1]; 400 mg,35
same,"Time to meaningful pain relief: subjects censored, %",[1]; 400 mg,(31.4) %
same,"Time to meaningful pain relief: subjects censored, n",[1]; 400 mg,16
same,"Time to onset of analgesia, Hazard ratio","[1]; Cox proportional hazards model, vs placebo",4.4
same,Time to onset of analgesia: subjects analyzed,[1],(68.6) %
same,"Time to first perceptible pain relief, Mean","[1]; Kaplan-Meier estimate, 400 mg",0.9 h
same,"Time to first perceptible pain relief, Q25","[1]; Kaplan-Meier estimate, 400 mg",0.35 h
same,"Time to first perceptible pain relief, Q50","[1]; Kaplan-Meier estimate, 400 mg",0.60 h
same,"Time to first perceptible pain relief, Q75","[1]; Kaplan-Meier estimate, 400 mg",0.97 h
same,"Time to meaningful pain relief, Mean","[1]; Kaplan-Meier estimate, 400 mg",2.6 h
same,"Time to meaningful pain relief, Q25","[1]; Kaplan-Meier estimate, 400 mg",0.75 h
same,"Time to meaningful pain relief, Q50","[1]; Kaplan-Meier estimate, 400 mg",1.33 h
same,"Time to meaningful pain relief, Q75","[1]; Kaplan-Meier estimate, 400 mg",4.27 h
same,"Time to onset of analgesia, Mean",[1]; Kaplan-Meier estimate,0.9 h
same,"Time to onset of analgesia, Q25",[1]; Kaplan-Meier estimate,0.38 h
same,"Time to onset of analgesia, Q50",[1]; Kaplan-Meier estimate,0.72 h
same,Time to onset of analgesia: subjects censored,[1]; right-censored at 8 hours,(31.4) %
same,"Hazard ratio vs placebo, Cox proportional hazards model (time to first use of rescue medication)",[2],0.2
same,"Time to first use of rescue medication: subjects analyzed, %",[2],(41.2) %
same,"Time to first use of rescue medication: subjects censored, %",[2],(58.8) %
same,"Time to first use of rescue medication, Mean",[2]; Kaplan-Meier estimate,4.7 h
same,"Time to first use of rescue medication, Q25",[2]; Kaplan-Meier estimate,3.30 h
same,Subjects with ≧1 severe TEAE,[3],(5.9) %
same,Subjects with ≧1 treatment-related TEAE,[3],(2.0) %
same,Subjects who died,[3]; n,0
same,Subjects who discontinued due to a TEAE,[3]; n,0
same,Subjects with ≧1 SAE,[3]; n,0
